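Grown in 96-well plates, cells were treated for 48 hours with each compound at five concentrations. Insufficient inhibition: endpoint recorded as highest concentration tested. The concentration for full growth arrest is given as TGI.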
Tests used:
Test in all cases: NCI tumour cell line growth inhibition, 48 h
786-0 renal = test system: 786-0 renal
A498 renal = test system: A498 renal
A549 NSCLC = test system: A549 NSCLC
ACHN renal = test system: ACHN renal
BT-549 breast = test system: BT-549 breast
CAKI-1 renal = test system: CAKI-1 renal
CCRF-CEM leukemia = test system: CCRF-CEM leukemia
COLO 205 colon = test system: COLO 205 colon
DMS 114 small cell lung = test system: DMS 114 small cell lung
DMS 273 small cell lung = test system: DMS 273 small cell lung
DU-145 prostate = test system: DU-145 prostate
EKVX NSCLC = test system: EKVX NSCLC
HCC-2998 colon = test system: HCC-2998 colon
HCT-116 colon = test system: HCT-116 colon
HCT-15 colon = test system: HCT-15 colon
HL-60(TB) leukemia = test system: HL-60(TB) leukemia
HOP-18 NSCLC = test system: HOP-18 NSCLC
HOP-62 NSCLC = test system: HOP-62 NSCLC
HOP-92 NSCLC = test system: HOP-92 NSCLC
HS 578T breast = test system: HS 578T breast
HT29 colon = test system: HT29 colon
IGROV1 ovarian = test system: IGROV1 ovarian
K-562 leukemia = test system: K-562 leukemia
KM12 colon = test system: KM12 colon
KM20L2 colon = test system: KM20L2 colon
LOX IMVI melanoma = test system: LOX IMVI melanoma
LXFL 529 NSCLC = test system: LXFL 529 NSCLC
M14 melanoma = test system: M14 melanoma
M19-MEL melanoma = test system: M19-MEL melanoma
MALME-3M melanoma = test system: MALME-3M melanoma
MCF7 breast = test system: MCF7 breast
MDA-MB-231 breast = test system: MDA-MB-231 breast
MDA-MB-435 = test system: MDA-MB-435
MDA-N = test system: MDA-N
MOLT-4 leukemia = test system: MOLT-4 leukemia
NCI-H226 lung = test system: NCI-H226 lung
NCI-H23 lung = test system: NCI-H23 lung
NCI-H460 lung = test system: NCI-H460 lung
NCI-H522 lung = test system: NCI-H522 lung
NCI/ADR-RES ovarian = test system: NCI/ADR-RES ovarian
OVCAR-3 ovarian = test system: OVCAR-3 ovarian
OVCAR-4 ovarian = test system: OVCAR-4 ovarian
OVCAR-5 ovarian = test system: OVCAR-5 ovarian
OVCAR-8 ovarian = test system: OVCAR-8 ovarian
PC-3 prostate = test system: PC-3 prostate
RPMI-8226 leukemia = test system: RPMI-8226 leukemia
RXF 393 renal = test system: RXF 393 renal
SF-268 CNS = test system: SF-268 CNS
SF-295 CNS = test system: SF-295 CNS
SF-539 CNS = test system: SF-539 CNS
SK-MEL-2 melanoma = test system: SK-MEL-2 melanoma
SK-MEL-28 melanoma = test system: SK-MEL-28 melanoma
SK-MEL-5 melanoma = test system: SK-MEL-5 melanoma
SK-OV-3 ovarian = test system: SK-OV-3 ovarian
SN12C renal = test system: SN12C renal
SNB-19 CNS = test system: SNB-19 CNS
SNB-75 CNS = test system: SNB-75 CNS
SW-620 colon = test system: SW-620 colon
T-47D breast = test system: T-47D breast
TK-10 renal = test system: TK-10 renal
U251 CNS = test system: U251 CNS
UACC-257 melanoma = test system: UACC-257 melanoma
UACC-62 melanoma = test system: UACC-62 melanoma
UO-31 renal = test system: UO-31 renal
XF 498 CNS = test system: XF 498 CNS
DLD-1 colon = test system: DLD-1 colon
SR leukemia = test system: SR leukemia

SMILES: O=C(Cc1ccccc1F)NC1=C(Cl)C(=O)c2ccccc2C1=O
- TGI (786-0 renal): 9.68 µM
- TGI (A498 renal): 33.4 µM
- TGI (A549 NSCLC): 15.7 µM
- TGI (ACHN renal): 2.02 µM
- TGI (BT-549 breast): 7.26 µM
- TGI (CAKI-1 renal): 9.42 µM
- TGI (CCRF-CEM leukemia): 7.36 µM
- TGI (COLO 205 colon): 6.9 µM
- TGI (DMS 114 small cell lung): 0.543 µM
- TGI (DMS 273 small cell lung): 11.5 µM
- TGI (DU-145 prostate): 21.8 µM
- TGI (EKVX NSCLC): 18 µM
- TGI (HCC-2998 colon): 15.2 µM
- TGI (HCT-116 colon): 5.12 µM
- TGI (HCT-15 colon): 13.3 µM
- TGI (HL-60(TB) leukemia): 0.8 µM
- TGI (HOP-18 NSCLC): 3.32 µM
- TGI (HOP-62 NSCLC): 24.2 µM
- TGI (HOP-92 NSCLC): 2.49 µM
- TGI (HS 578T breast): 23.8 µM
- TGI (HT29 colon): 19.5 µM
- TGI (IGROV1 ovarian): 9.25 µM
- TGI (K-562 leukemia): > 41.8 µM
- TGI (KM12 colon): 4.11 µM
- TGI (KM20L2 colon): 29.8 µM
- TGI (LOX IMVI melanoma): 5.99 µM
- TGI (LXFL 529 NSCLC): 5.56 µM
- TGI (M14 melanoma): 7.41 µM
- TGI (M19-MEL melanoma): 12.4 µM
- TGI (MALME-3M melanoma): 5 µM
- TGI (MCF7 breast): 21.4 µM
- TGI (MDA-MB-231 breast): 13.8 µM
- TGI (MDA-MB-435): 10.4 µM
- TGI (MDA-N): 11.8 µM
- TGI (MOLT-4 leukemia): 6.47 µM
- TGI (NCI-H226 lung): 6.7 µM
- TGI (NCI-H23 lung): 3.87 µM
- TGI (NCI-H460 lung): 21.7 µM
- TGI (NCI-H522 lung): 0.565 µM
- TGI (NCI/ADR-RES ovarian): 6.25 µM
- TGI (OVCAR-3 ovarian): 2.9 µM
- TGI (OVCAR-4 ovarian): 5.65 µM
- TGI (OVCAR-5 ovarian): 21.2 µM
- TGI (OVCAR-8 ovarian): 9.36 µM
- TGI (PC-3 prostate): 11.9 µM
- TGI (RPMI-8226 leukemia): 19.1 µM
- TGI (RXF 393 renal): 0.816 µM
- TGI (SF-268 CNS): 15.1 µM
- TGI (SF-295 CNS): 11.8 µM
- TGI (SF-539 CNS): 1.93 µM
- TGI (SK-MEL-2 melanoma): 2.98 µM
- TGI (SK-MEL-28 melanoma): 9.6 µM
- TGI (SK-MEL-5 melanoma): 4.37 µM
- TGI (SK-OV-3 ovarian): 13.7 µM
- TGI (SN12C renal): 16.8 µM
- TGI (SNB-19 CNS): 25.2 µM
- TGI (SNB-75 CNS): 8.06 µM
- TGI (SW-620 colon): 3.81 µM
- TGI (T-47D breast): 5.8 µM
- TGI (TK-10 renal): 5.29 µM
- TGI (U251 CNS): 4.67 µM
- TGI (UACC-257 melanoma): 4.32 µM
- TGI (UACC-62 melanoma): 1.92 µM
- TGI (UO-31 renal): 8.98 µM
- TGI (XF 498 CNS): 1.68 µM

SMILES: CC(=O)OCC1OC(n2ccc(=O)[nH]c2=O)C(OC(C)=O)C(OC(C)=O)C1OC(C)=O (centres undefined)
- TGI (786-0 renal): > 100 µM
- TGI (A498 renal): > 100 µM
- TGI (A549 NSCLC): > 100 µM
- TGI (ACHN renal): > 100 µM
- TGI (CAKI-1 renal): > 100 µM
- TGI (CCRF-CEM leukemia): > 100 µM
- TGI (COLO 205 colon): > 100 µM
- TGI (DLD-1 colon): > 100 µM
- TGI (DMS 114 small cell lung): > 100 µM
- TGI (DMS 273 small cell lung): > 100 µM
- TGI (EKVX NSCLC): > 100 µM
- TGI (HCC-2998 colon): > 100 µM
- TGI (HCT-116 colon): > 100 µM
- TGI (HCT-15 colon): > 100 µM
- TGI (HOP-18 NSCLC): > 100 µM
- TGI (HOP-62 NSCLC): > 100 µM
- TGI (HOP-92 NSCLC): > 100 µM
- TGI (HT29 colon): > 100 µM
- TGI (IGROV1 ovarian): > 100 µM
- TGI (K-562 leukemia): > 100 µM
- TGI (KM12 colon): > 100 µM
- TGI (KM20L2 colon): > 100 µM
- TGI (LOX IMVI melanoma): > 100 µM
- TGI (LXFL 529 NSCLC): > 100 µM
- TGI (M14 melanoma): > 100 µM
- TGI (M19-MEL melanoma): > 100 µM
- TGI (MALME-3M melanoma): > 100 µM
- TGI (NCI-H226 lung): > 100 µM
- TGI (NCI-H23 lung): > 100 µM
- TGI (NCI-H460 lung): > 100 µM
- TGI (NCI-H522 lung): > 100 µM
- TGI (OVCAR-3 ovarian): > 100 µM
- TGI (OVCAR-4 ovarian): > 100 µM
- TGI (OVCAR-5 ovarian): > 100 µM
- TGI (OVCAR-8 ovarian): > 100 µM
- TGI (RPMI-8226 leukemia): > 100 µM
- TGI (RXF 393 renal): > 100 µM
- TGI (SF-268 CNS): > 100 µM
- TGI (SF-295 CNS): > 100 µM
- TGI (SK-MEL-2 melanoma): > 100 µM
- TGI (SK-MEL-28 melanoma): > 100 µM
- TGI (SK-MEL-5 melanoma): > 100 µM
- TGI (SK-OV-3 ovarian): > 100 µM
- TGI (SN12C renal): > 100 µM
- TGI (SNB-19 CNS): > 100 µM
- TGI (SNB-75 CNS): > 100 µM
- TGI (SR leukemia): > 100 µM
- TGI (SW-620 colon): > 100 µM
- TGI (TK-10 renal): > 100 µM
- TGI (U251 CNS): > 100 µM
- TGI (UACC-257 melanoma): > 100 µM
- TGI (UACC-62 melanoma): > 100 µM
- TGI (UO-31 renal): > 100 µM
- TGI (XF 498 CNS): > 100 µM
